1 compound from patent US12239645B2, “Targeted dosing for the treatment of complement mediated disorders” (Achillion Pharmaceuticals, Inc., priority 2018, dated 2025) can be followed below.

Values after ≈ are worked out from the molar mass of the structure shown. Values joined by “and” are separate entries in the source; they are usually repeats but may differ in a detail not shown here. Equal entries are not always repeated.

The test system of the experiment is complement alternative pathway (AP) activity. Description: SAD study: ex vivo serum AP hemolysis assay and PK-PD analysis. It counts as in vivo, human. The settings on record: for time approximately 90% or greater inhibition maintained after dosing: AP hemolysis. Here is the method:
For human serum preparation, venous blood was collected by standard clinical procedures into a Gold Top, SST vacutainer (BD Vacutainer). After clotting at room temperature for 30 minutes or longer, the tube was centrifuged at ˜1,300×g at 4° C. for 15 minutes to separate the serum from the clot. Serum was then aliquotted into pre-chilled cryovials (50-200 μl/vial) for storage at ˜80° C. Each vial was thawed only once and used for each complement related assay, the remaining sample was discarded without further usage. For preparation of plasma, venous blood was collected into a Lavender Top, K2EDTA vacutainer and gently inverted several times to allow for complete mixing of the blood sample with the anticoagulant. The tube was placed in an ice-bath for 30 minutes and then centrifuged for 15 minutes at ˜1300×g at 4° C. to separate the plasma from the blood cells. Plasma was divided into aliquots in pre-chilled cryogenic storage tubes and stored at a ˜80° C. freezer within one hour of having collected the blood sample. For delivery, tubes containing either serum or plasma were shipped in the presence of dry ice without additional freeze-thaw cycle.
Ex vivo serum AP hemolysis assays were conducted in 96-well microtiter plates divided into two parts, one for hemolysis and the other for serum background color subtraction. Briefly, a suspension of rabbit red blood cells (RBCs) was centrifuged at 800×g at 4° C. for 3 minutes and the supernatant was removed to get rid of the RBC debris. The RBC cell pellet was re-suspended gently with pre-chilled gelatin veronal buffer (GVB0) containing 10 mM MgEGTA to a density of 5×10^8 cells/mL. Other controls including buffer, spontaneous rabbit RBC lysis, 100% RBC lysis (in water), and normal serum control were set up alongside the test samples as well. Serum was placed in a 37° C. water-bath until mostly thawed and immediately transferred to ice bath. 20% serum was prepared with GVB0-MgEGTA buffer and kept at ice bath before testing. Reactions were carried out in a 96 well plate by mixing 50 μl of 20% serum with equal volume of GVB0-MgEGTA buffer and then quickly adding 20 μl of RBC suspension. The plate was shaken on a microtiter plate shaker for 5 seconds and then incubated at 37° C. for 30 minutes. Halfway during the incubation period, the plate was shaken for another 5 seconds as described above. At the end of the incubation, the plate was centrifuged at 800×g at 4° C. for 3 minutes to pellet the un-lysed rabbit RBCs. 80 μl of supernatant was removed carefully from all wells and transferred to a clear flat-bottom microtiter plate for the measurement of optical absorbance at 405 nm (A405) in a Molecular Devices Spectramax Plus plate reader. AP hemolysis in each well was calculated relative to the activity of the NHS reference sample formulas as follows: Hemolysis (%)=((Hm−Bk)−(Sp−Bf))/((NH−BkNH)−(Sp−Bf))×100%
where Hm=A405 in the hemolysis well, Bk=A405 in the corresponding background well, Sp=mean A405 in the spontaneous hemolysis wells, Bf=mean A405 in the buffer alone wells, NH=mean A405 in the reference NHS wells, and BkNH=mean A405 in the corresponding background wells.
The PK-PD relationship was evaluated using time-matched plasma Compound 1 concentrations and serum AP inhibition values by non-linear regression with GraphPad Prism (La Jolla, CA) using the following two models: • 1. […] Pharmacodynamic and Pharmacokinetic Results AP Activity Measured with AP Hemolysis […]

Regarding `CC(=O)c1nn(CC(=O)N2[C@H](C(=O)Nc3nc(Br)ccc3C)C[C@@]3(C)C[C@@H]23)c2ccc(-c3cnc(C)nc3)cc12` [Compound 1, (1R,3S,5R)-2-(2-(3-acetyl-5-(2-methylpyrimidin-5-yl)-1H-indazol-1-yl)acetyl)-N-(6-bromo-3-methylpyridin-2-yl)-5-methyl-2-azabicyclo[3.1.0]hexane-3-carboxamide], the “time approximately 90% or greater inhibition maintained after dosing” value reads like this: (Group 1, 40 mg single dose) “at least 4 hours”; (Groups 2 and 3, 80 and 120 mg single dose) “at least 8 hours”. Further, the EC50 (Homo sapiens, simple Emax model, all SAD dose cohorts, read-out: EC50 (plasma concentration vs serum AP inhibition)) was determined as 0.0111 mg/L (≈ 0.0184 µM). Where the note is “simple Emax model, all SAD dose cohorts”, the “EC50 (plasma concentration vs serum AP inhibition)” value was ~0.01 mg/L and 0.011 mg/L. The “inhibition of AP activity after dosing” value (single dose 40, 80 or 120 mg, all groups) was “complete inhibition”.
